In brackets after ≈: the same amount, converted by molar mass. Entries after “also recorded” stand apart in the source; their conditions may differ. Values belong to the molecule of their own block, whether it stands above or below them. Positions of bridges follow the written chain, without caps; N, C: chain ends. Non-standard residues stand in square brackets, D forms with d. Residues, ends and D or L forms follow the SMILES beside them. R8 = C=CCCCCCC[C@@](C)(N)C(=O)O; S5 = C=CCCC[C@](C)(N)C(=O)O
Columns and labels:
[1] = circular dichroism; details: phosphate buffer (PB); pH 7.2; ns °C; 10-50 (printed mmol/L, probably uM)
[2] = system: U87 MG; details: for concentration at which in vitro anti-tumor activity was exhibited: U87 MG tumor cells, CCK-8
[3] = system: tumor cells; assay: Cytotoxicity / cell viability assay (CCK-8), cell line not given; type: cell-based, human; details: for concentration at which in vitro anti-tumor activity was exhibited: compared to linear peptide M3-1, cell line not named; for anti-proliferative / tumor suppressive activity (in words): HCT116 p53^+/+, HCT116 p53−/−, U87 and U251 cell viability experiments, versus template straight-chain peptide
Procedure: Human colon cancer cell lines HCT116 p53^+/+, HCT116 p53^−/−, U87 MG, and U251 were maintained in McCoy’s 5A Medium supplemented with 10% heat-inactivated FCS and 1% penicillin–streptomycin at 37°C, 5% CO2, and under complete humidification conditions. The cells (3×10^3 cells/well) were inoculated in 96-well plates and treated with different concentrations of polypeptides for 72 h. The absorbance at 450 nm was then measured using the CCK-8 Kit, and the percentage of cell survival was calculated based on the ratio of the sample well to the reference well A450.

[4] = system: U251; details: for concentration at which in vitro anti-tumor activity was exhibited: U251 tumor cells, CCK-8
[5] = system: HCT116 p53^−/−; details: 72 h
[6] = Circular dichroism, degree of helicity; type: physicochemical; details: CD, PB pH 7.2, 10–50 mmol/L peptide, ambient temperature, 1-mm path length, 185–255 nm
Procedure: The staple peptides were soluble in PB with a pH of 7.2 at a concentration of 10–50 mmol/L. CD experiments were performed using a Jasco J-715 Spectropolarimeter at ambient temperature. A quartz cuvette with a 1-mm path length was used for the spectrum collection (wavelength, 185–255 nm; step resolution, 0.0001 mm; speed, 1.2 μm/h; accumulations, 6; and bandwidth, 0.0001 mm). We calculated the helicity of each peptide using Eq.

[7] = system: HCT116 p53^+/+; details: 72 h
[8] = system: U87 MG; assay: Apoptosis assay (Annexin V/PI, flow cytometry); type: cell-based, human; parameters: LR / UR / LR+UR: unit not given here; details: for LR+UR: total apoptosis
Procedure: Fluorescent probes were used to detect normal viable cells, apoptotic cells, and necrotic cells by double labeling of cells, and the morphological characteristics of the apoptotic cells were explored. A Petri dish with 8–90% confluence was taken from the incubator. Tumor cells were collected, and the cells were counted under the microscope through the cell slide. A cell suspension of the appropriate concentration was prepared. Different concentrations of peptide samples were added according to the experimental group. Three compound wells were set up in each group; the control group was set up without peptides, and the blank group was set up without cells. […] Then, 2 μL of PI solution was added before placing it on the machine, and one tube without dye was used as a negative control. On-machine assays were performed with flow cytometry. […] Total apoptosis = LR region + UR region.

[9] = system: U251; assay: Apoptosis assay (Annexin V/PI, flow cytometry); type: cell-based, human; parameters: LR / UR / LR+UR: unit not given here; details: for LR+UR: total apoptosis
Procedure: Fluorescent probes were used to detect normal viable cells, apoptotic cells, and necrotic cells by double labeling of cells, and the morphological characteristics of the apoptotic cells were explored. A Petri dish with 8–90% confluence was taken from the incubator. Tumor cells were collected, and the cells were counted under the microscope through the cell slide. A cell suspension of the appropriate concentration was prepared. Different concentrations of peptide samples were added according to the experimental group. Three compound wells were set up in each group; the control group was set up without peptides, and the blank group was set up without cells. Then, 300 μL of Binding Buffer was added after 24 h of dosing, and 2 μL of Annexin V was added to each tube, pipetted to mix it well, and then incubated at room temperature in the dark for 15 min. Then, 2 μL of PI solution was added before placing it on the machine, and one tube without dye was used as a negative control. On-machine assays were performed with flow cytometry. […] Total apoptosis = LR region + UR region.

[10] = system: U251; assay: Apoptosis assay (Annexin V/PI, flow cytometry); type: cell-based, human; details: U251, 20 μM, 36 h (legend; method 24 h), mean
[11] = 20 μM, 36 h (legend; method 24 h), Annexin V/PI, mean
[12] = U251, 5 μM, sample 9 (replicate 1)
[13] = U251, 5 μM, sample 10 (replicate 2)
[14] = U251, 10 μM, sample 11 (replicate 1)
[15] = U251, 10 μM, sample 12 (replicate 2)
[16] = U251, 20 μM, sample 13 (replicate 1)
[17] = U251, 20 μM, sample 14 (replicate 2)

Molecule: Ac-KLTFLEYWAQLMQK-NH2
helicity [1]: 0.54%

IC50 ([2]; 72 h): 45 µM
IC50 ([4]; 72 h): 94.2 µM
IC50 [5]: 17.9 µM
helicity [6]: 52.02%
IC50 [7]: 17.6 µM
Molecule: CC(=O)N[C@@H](CCCCN)C(=O)N[C@@H](CC(C)C)C(=O)N[C@H](C(=O)N[C@@H](Cc1ccccc1)C(=O)N[C@]1(C)CCCCCCC=CCCC[C@@](C)(C(=O)N[C@@H](CCC(N)=O)C(=O)N[C@@H](CCCCN)C(N)=O)NC(=O)[C@H](CC(C)C)NC(=O)[C@H](CCC(N)=O)NC(=O)[C@H](C)NC(=O)[C@H](Cc2c[nH]c3ccccc23)NC(=O)[C@H](Cc2ccc(O)cc2)NC(=O)[C@H](CCC(=O)O)NC1=O)[C@@H](C)O [SM3-8] (Ac-KLTF[R8]EYWAQL[S5]QK-NH2; staple 5-12)
concentration at which in vitro anti-tumor activity was exhibited [2]: 50 µM
concentration at which in vitro anti-tumor activity was exhibited [3]: 25 µM
concentration at which in vitro anti-tumor activity was exhibited [4]: 100 µM

IC50 ([2]; 72 h): 30.7 µM
IC50 ([4]; 72 h): 48.7 µM
IC50 [5]: 24 µM
helicity [6]: 5.85%
IC50 [7]: 34.4 µM
Molecule: CSCC[C@H](NC(=O)[C@H](CC(C)C)NC(=O)[C@H](CCC(N)=O)NC(=O)[C@H](C)NC(=O)[C@H](Cc1c[nH]c2ccccc12)NC(=O)[C@]1(C)CCCC=CCCC[C@](C)(NC(=O)[C@H](CC(C)C)NC(=O)[C@H](CCCCN)NC(C)=O)C(=O)N[C@@H](Cc2ccccc2)C(=O)N[C@@H](CC(C)C)C(=O)N[C@@H](CCC(=O)O)C(=O)N1)C(=O)N[C@@H](CCC(N)=O)C(=O)N[C@@H](CCCCN)C(N)=O [SM3-2] (Ac-KL[S5]FLE[S5]WAQLMQK-NH2; staple 3-7)
concentration at which in vitro anti-tumor activity was exhibited [2]: 25 µM
helicity [1]: 5.85%
anti-proliferative / tumor suppressive activity (in words) [3]: significantly improved
concentration at which in vitro anti-tumor activity was exhibited [3]: 25 µM
concentration at which in vitro anti-tumor activity was exhibited [4]: 50 µM

IC50 ([2]; 72 h): 7.84 µM
IC50 ([4]; 72 h): 14.7 µM
IC50 [5]: 33.2 µM
helicity [6]: 28.96%
IC50 [7]: 77.5 µM
Molecule: CSCC[C@H](NC(=O)[C@H](CC(C)C)NC(=O)[C@]1(C)CCCC=CCCC[C@](C)(NC(=O)[C@H](CC(C)C)NC(=O)[C@H](Cc2ccccc2)NC(=O)[C@@H](NC(=O)[C@H](CC(C)C)NC(=O)[C@H](CCCCN)NC(C)=O)[C@@H](C)O)C(=O)N[C@@H](Cc2ccc(O)cc2)C(=O)N[C@@H](Cc2c[nH]c3ccccc23)C(=O)N[C@@H](C)C(=O)N1)C(=O)N[C@@H](CCC(N)=O)C(=O)N[C@@H](CCCCN)C(N)=O [SM3-4] (Ac-KLTFL[S5]YWA[S5]LMQK-NH2; staple 6-10)
minimum inhibitory concentration ([2]; 72 h): 8 µM (≈ 14.7 µg/mL)
LR ([8]; 5 μM, sample 1 (replicate 1)): 1.25
UR ([8]; 5 μM, sample 1 (replicate 1)): 3.07
LR+UR ([8]; 5 μM, sample 1 (replicate 1)): 4.32
LR ([8]; 5 μM, sample 2 (replicate 2)): 1.04
UR ([8]; 5 μM, sample 2 (replicate 2)): 3.27
LR+UR ([8]; 5 μM, sample 2 (replicate 2)): 4.31
LR ([8]; 10 μM, sample 3 (replicate 1)): 1.11
UR ([8]; 10 μM, sample 3 (replicate 1)): 6.12
LR+UR ([8]; 10 μM, sample 3 (replicate 1)): 7.23
LR ([8]; 10 μM, sample 4 (replicate 2)): 2.02
UR ([8]; 10 μM, sample 4 (replicate 2)): 3.16
LR+UR ([8]; 10 μM, sample 4 (replicate 2)): 5.18
LR: apoptotic cells [8, 11]: 29.91%
UR: dead cells [8, 11]: 42.285%
LR ([8]; 20 μM, sample 5 (replicate 1)): 26.96
UR ([8]; 20 μM, sample 5 (replicate 1)): 37.58
LR+UR ([8]; 20 μM, sample 5 (replicate 1)): 64.54
LR ([8]; 20 μM, sample 6 (replicate 2)): 32.86
UR ([8]; 20 μM, sample 6 (replicate 2)): 46.99
LR+UR ([8]; 20 μM, sample 6 (replicate 2)): 79.85
apoptotic effect (in words) ([8]; 5, 10 and 20 μM): significant apoptotic effect
helicity [1]: 29%
LR [9, 12]: 0.89
UR [9, 12]: 2.73
LR+UR [9, 12]: 3.62
LR [9, 13]: 0.47
UR [9, 13]: 1.92
LR+UR [9, 13]: 2.39
LR [9, 14]: 1.47
UR [9, 14]: 1.92
LR+UR [9, 14]: 3.39
LR [9, 15]: 1.12
UR [9, 15]: 1.94
LR+UR [9, 15]: 3.06
LR [9, 16]: 6.85
UR [9, 16]: 8.8
LR+UR [9, 16]: 15.65
LR [9, 17]: 4.92
UR [9, 17]: 13.66
LR+UR [9, 17]: 18.58
apoptotic effect (in words) ([9]; U251, 5, 10 and 20 μM): significant apoptotic effect
anti-proliferative / tumor suppressive activity (in words) [3]: significantly improved; also recorded: strongest anti-proliferative activity
concentration at which in vitro anti-tumor activity was exhibited [3]: 25 µM
minimum inhibitory concentration ([4]; 72 h): 16 µM (≈ 29.3 µg/mL)
LR: apoptotic cells [10]: 5.885%
UR: dead cells [10]: 11.23%

Reference: PMC11190158, “Study on the design, synthesis, and activity of anti-tumor staple peptides targeting MDM2/MDMX” (Frontiers in Chemistry, 2024)
